In patent US20050214938A1, “Cardiac bodies: clusters of spontaneously contracting cells for regenerating cardiac function” (priority 2004, published 2005):

Legend:
mouse ES cells = conditions: Wobus et al. 1997; cited from earlier work
[1] = system: hES cells of the H1 or H9 line
Method: hES cells of the H1 or H9 line being cultured as embryoid bodies were treated at differentiation day 1-4,4-6 or 6-8 with 5-aza-deoxy-cytidine, a cytosine analog that affects DNA methylation, thereby activating gene expression. Cells were harvested at day 15, and analyzed for cardiac α-MHC by real-time RT-PCR.
The RT-PCR assay from Example 3 was adapted for the Taqman™ 7700 sequence detection system using the same primers, amplifying for 40 cycles at 95° C. for 15 sec and 60° C. for 1 min. 18S ribosomal RNA was amplified for a control using a kit for Taqman™ ribosomal RNA control reagents (Applied Biosystems). Reactions were analyzed by ABI Prism™ 7700 Sequence Detection system.
Other reagents examined for an ability to induce cardiomyocyte differentiation included dimethyl sulfoxide (DMSO) and all-trans retinoic acid (RA).
Retinoic acid was applied to differentiating hES cultures at doses between 10^−9 and 10^−[…].

[2] = system: hES-derived cardiomyocytes; test: Pharmacological response: contraction rate of beating areas; type: cell-based, human; conditions: for chronotropic effect: FIG. 5 Panels B-E
Method: EBs were plated on to gelatin-coated 24-well plates and allowed to differentiate, as in Example 2. Contracting cardiomyocytes at differentiation day 15-21 were used for examining pharmacological response. The frequency of the spontaneous beating was measured by counting the contraction rate of the beating areas maintained in the differentiation medium in a 37° C. heating chamber of an inverted microscope. The cells were then incubated with test compounds in the incubator for 20-30 min, and observed for contraction rate. Dose-dependent effects were determined by cumulatively applying of increasing concentrations of each substrate. Data represent the mean pulsation rate±standard error of the mean measured on 10-20 beating areas.
Differentiated cells were incubated with various concentrations of the drug and the number of beats per minute was counted. The cells were then washed with medium, maintained in differentiation medium for 24 h and observed for the time taken to recover contractility.

hES cells of the H7 line = test: Direct differentiation paradigm without embryoid body stage; type: cell-based, human; conditions: 10 μM at day 10-12 or 12-14
Method: Cardiomyocyte differentiation was also achieved in a direct differentiation paradigm. Undifferentiated hES cells of the H7 line were dissociated and plated directly onto gelatin-coated plates without going through an embryoid body stage. The plated cells were cultured in differentiation medium (80% KO-DMEM, 1 mM L-glutamine, 0.1 mM p-mercaptoethanol, 1% amino acids, and 20% fetal bovine serum). Contracting cardiomyocytes were found at day 18 in cultures treated with 10 μM 5-aza-deoxy-cytidine at day 10-12 or 12-14, and at later times in all cultures.

[3] = system: cardiomyogenic cell line from bone marrow stroma; conditions: treated for 24 hours; cited from earlier work

CC1=C(/C=C/C(C)=C/C=C/C(C)=C/C(=O)O)C(C)(C)CCC1 [RA, all-trans retinoic acid]
effect on cardiac differentiation (mouse ES cells): accelerates ES cell-derived cardiac differentiation | beating cells compared with untreated cultures ([1]; days 4-8, 8-15, or 4-15, doses between 10^−9 and 10^−5 μM): no increase

C[S+](C)[O-] [DMSO, dimethyl sulfoxide]
toxicity to the cells [1]: toxic | beating areas compared with non-treated cultures ([1]; 0.5%, days 0-4): fewer beating areas | beating cells ([1]; 0.8% or 1%): absent | α-MHC expression compared with untreated cultures ([1]; DMSO treatment): significant reduction

COc1ccc([C@@H]2Sc3ccccc3N(CCN(C)C)C(=O)[C@@H]2OC(C)=O)cc1 [diltiazem]
beating areas that stopped contraction ([2]; 10^−5 M): 100% | inhibition of beating rate ([2]; differentiation day 15-21, 20-30 min incubation, increasing concentrations): concentration-dependent manner

CC(C)NCC(O)c1ccc(O)c(O)c1 (centres unmarked) [isoprenaline]
chronotropic effect [2]: positive chronotropic effects

CNC[C@H](O)c1cccc(O)c1 [phenylephrine]
chronotropic effect [2]: positive chronotropic effects

Nc1ncn([C@H]2C[C@H](O)[C@@H](CO)O2)c(=O)n1 [5-aza-deoxy-cytidine]
day at which contracting cardiomyocytes were found (hES cells of the H7 line): 18 days | expression of cardiac α-MHC ([1]; 1 to 10 μM at day 6-8, harvested day 15): significantly increased

CC(C)(C)NCC(O)c1cc(Cl)c(N)c(Cl)c1 (centres unmarked) [clenbuterol]
beating rate after treatment ([2]; cells taken at Day 72, 1-10 nM, from about 72 beats/min, p<0.005): about 98 beats/min

Nc1ncn([C@@H]2O[C@H](CO)[C@@H](O)[C@H]2O)c(=O)n1 [5-azacytidine]
cells forming myotube-like structures, acquiring cardiomyocyte markers and beginning to beat [3]: 30%
